Assay results taken from patent publication US8058475B2, “Substituted cyclohexylmethyl compounds” (Gruenenthal GmbH, priority 2005, dated 2011).
Structures can show the parent of a compound that is named as a salt. Where two headings read alike, the source gives them in different places.

Assays:
[1] = test system: mouse; test: In vivo studies of analgesia: tail-flick test in the mouse; conditions: iv
Text: In vivo Studies of Analgesia: Tail-flick Test in the Mouse
The mice were each placed individually into a test cage and the base of the tail was exposed to the focused heat ray of an electric lamp (tail-flick type 50/08/1.bc, Labtec, Dr. Hess). The intensity of the lamp was adjusted so that the time from switching on of the lamp to the sudden twitching away of the tail (latency of pain) in untreated mice was from 3 to 5 seconds. Before administration of the solutions comprising the compound according to the invention, or of the particular comparison solutions, the mice were pre-tested twice in the course of five minutes and the mean of these measurements was calculated as the pre-test mean.
The solutions of the compound of the general formula I according to the invention and the comparison solutions were then administered intravenously.
Pain measurement was carried out in each case 10, 20, 40 and 60 minutes following the intravenous administration. The analgesic activity was determined as the increase in the latency of pain (% of the maximum possible antinociceptive effect) according to the following formula: [(T1−T0)/(T2−T0)]×100 where time T0 is the latency before administration, time T1 is the latency after administration of the active ingredient combination and time T2 is the maximum exposure time (12 seconds).
The in-depth study of analgesic activity was carried out in the tail-flick test in the mouse, as described above.

[2] = target: human μ-opiate receptor (Homo sapiens, UniProt P35372); test: Affinity for the human μ-opiate receptor ([3H]-naloxone displacement, SPA, CHO-K1 membrane preparation); assay type: binding; conditions: for inhibition at 1 µM: read-out: μ-Opioid receptor, % inhibition [1 μM]; for Ki: read-out: μ-Opioid receptor, Ki
[3] = target: T1, Serotonin (5HT) reuptake (Rattus norvegicus, UniProt P31652); test: Serotonin (5HT) reuptake inhibition in rat brain synaptosomes (P2 fraction); assay type: biochemical; conditions: for inhibition at 10 µM: read-out: Serotonin reuptake, % inhibition [10 μM]
T1 construct: synaptosomes are freshly isolated from areas of rat brain; from tissue; host or cells: rat brain synaptosomes (P2 fraction)
In short: (§1)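 Freshly isolated rat brain synaptosomes (P2 fraction, Gray–Whittaker method) used for uptake; for NA uptake the particles came from hypothalamus of male rats.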

[4] = target: T2, Noradrenaline (NA) reuptake (Rattus norvegicus, UniProt Q63380); test: Noradrenaline (NA) reuptake inhibition in rat brain synaptosomes (hypothalamus, P2 fraction); assay type: biochemical
T2 construct: synaptosomes are freshly isolated from areas of rat brain; from tissue; host or cells: rat hypothalamus synaptosomes (P2 fraction)
In short: as §1

[5] = 1 μM test substance, inhibition of specific [3H]-naloxone binding
[6] = read-out: NA reuptake, % inhibition [10 μM]
[7] = read-out: Na reuptake, % inhibition [10 μM]

T1 sequence (P31652 whole entry): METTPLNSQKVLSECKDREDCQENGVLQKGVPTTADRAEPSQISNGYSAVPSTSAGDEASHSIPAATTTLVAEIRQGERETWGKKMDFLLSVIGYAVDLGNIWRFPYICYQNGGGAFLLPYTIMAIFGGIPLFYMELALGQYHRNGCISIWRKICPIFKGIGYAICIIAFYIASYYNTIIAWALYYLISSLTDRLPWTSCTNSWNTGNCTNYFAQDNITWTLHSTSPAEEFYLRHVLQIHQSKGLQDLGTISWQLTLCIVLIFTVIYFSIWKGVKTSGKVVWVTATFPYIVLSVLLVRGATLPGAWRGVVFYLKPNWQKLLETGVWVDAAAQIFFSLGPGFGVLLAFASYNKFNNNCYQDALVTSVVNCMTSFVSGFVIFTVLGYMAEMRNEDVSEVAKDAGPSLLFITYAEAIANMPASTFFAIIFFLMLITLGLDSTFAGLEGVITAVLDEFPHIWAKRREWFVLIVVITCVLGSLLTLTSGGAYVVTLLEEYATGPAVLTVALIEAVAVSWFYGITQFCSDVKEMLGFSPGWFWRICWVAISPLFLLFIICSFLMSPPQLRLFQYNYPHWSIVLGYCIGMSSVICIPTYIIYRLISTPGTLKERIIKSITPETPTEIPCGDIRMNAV
Chain of human μ-opiate receptor (P35372 whole entry): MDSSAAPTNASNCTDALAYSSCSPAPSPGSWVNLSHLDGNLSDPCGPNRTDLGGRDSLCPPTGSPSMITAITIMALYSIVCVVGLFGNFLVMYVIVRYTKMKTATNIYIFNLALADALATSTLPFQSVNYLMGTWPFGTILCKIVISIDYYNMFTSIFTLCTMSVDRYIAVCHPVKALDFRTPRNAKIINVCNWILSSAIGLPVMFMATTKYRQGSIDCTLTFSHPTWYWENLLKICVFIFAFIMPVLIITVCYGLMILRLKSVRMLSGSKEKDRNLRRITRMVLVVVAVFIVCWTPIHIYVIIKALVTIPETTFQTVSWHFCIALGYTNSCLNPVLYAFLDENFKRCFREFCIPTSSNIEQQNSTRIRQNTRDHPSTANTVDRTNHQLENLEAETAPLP
T2 sequence (Q63380 1-617): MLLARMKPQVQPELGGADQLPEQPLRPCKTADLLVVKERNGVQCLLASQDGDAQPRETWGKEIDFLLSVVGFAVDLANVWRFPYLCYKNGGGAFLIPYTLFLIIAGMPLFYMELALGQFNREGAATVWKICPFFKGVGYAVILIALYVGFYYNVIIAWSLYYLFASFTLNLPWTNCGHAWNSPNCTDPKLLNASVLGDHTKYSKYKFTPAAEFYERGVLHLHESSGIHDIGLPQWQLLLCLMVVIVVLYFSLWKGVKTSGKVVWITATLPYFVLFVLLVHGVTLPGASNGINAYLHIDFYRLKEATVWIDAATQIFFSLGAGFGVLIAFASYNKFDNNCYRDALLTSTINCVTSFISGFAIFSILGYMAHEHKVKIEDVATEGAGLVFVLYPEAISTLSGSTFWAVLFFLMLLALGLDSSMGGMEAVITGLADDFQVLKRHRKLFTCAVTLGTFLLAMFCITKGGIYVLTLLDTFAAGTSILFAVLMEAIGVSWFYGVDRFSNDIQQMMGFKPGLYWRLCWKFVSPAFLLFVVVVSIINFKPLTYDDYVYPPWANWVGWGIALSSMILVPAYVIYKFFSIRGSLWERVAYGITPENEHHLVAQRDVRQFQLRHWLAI

Structure (SMILES)	inhibition at 1 µM [2, 5] [%]	Ki [2] [nM]	Ki [3] [nM]	inhibition at 10 µM [3] [%]	inhibition at 10 µM [4, 6] [%]	other results
CN(C)C(c1ccccc1)C1CCC(NC(=O)Nc2ccccc2)CC1.Cl (stereo not drawn) [compound 78, 1-(4-((dimethylamino)(phenyl)methyl)cyclohexyl)-3-phenylurea hydrochloride]	91	54	160	87	98	ED50 ([1]; head prints (4.64-21.5)): 8.94 mg/kg; Ki [4]: 290 nM
CN(C)C(c1ccccc1)C1CCC(NC(=O)NCc2ccccc2)CC1 (stereo not drawn) [compound 79, 1-benzyl-3-(4-((dimethylamino)(phenyl)methyl)cyclohexyl)urea]	103	8.3	91	97	96	% maximum possible antinociceptive effect at 10 mg/kg ([1]; dose 10 mg/kg (i.v.), read-out: Activity % MPE): 76%; Ki [4]: 120 nM
CN(C)C(c1ccccc1)C1CCC(NS(=O)(=O)c2ccccc2)CC1 (stereo not drawn) [compound 110, N-(4-((dimethylamino)(phenyl)methyl)cyclohexyl)benzenesulfonamide hydrochloride]				86	62	inhibition at 1 µM ([2]; 1 μM, sulfonamides (Table 17)): 93%; Ki ([2]; sulfonamides (Table 17)): 25 nM
CN(C)C(c1cccs1)C1CCC(CO)CC1 (stereo not drawn) [compound 121, [4-(dimethylamino-thiophen-2-yl-methyl)-cyclohexyl]-methanol]	61			74	66	
CCOC(=O)C=C1CCC(C(c2ccc(F)cc2)N(C)C)CC1 (stereo not drawn) [compound 126, {4-[dimethylamino-(4-fluorophenyl)-methyl]-cyclohexylidene}-acetic acid ethyl ester]	35			86	81	
CN(C)C(c1ccc(Cl)cc1)C1CCC(N)CC1 (stereo not drawn) [compound 23, 4-[(4-chlorophenyl)-dimethylamino-methyl]-cyclohexylamine]	58			64	97	
CN(C)C(c1ccccc1)C1CCC(NS(=O)(=O)c2ccc(Cl)cc2)CC1 (stereo not drawn) [compound 106, 4-chloro-N-(4-((dimethylamino)(phenyl)methyl)cyclohexyl)benzene-sulfonamide hydrochloride]				83	68	inhibition at 1 µM ([2]; 1 μM, sulfonamides (Table 17)): 96%; Ki ([2]; sulfonamides (Table 17)): 3.7 nM
CN(C)C(c1cccc(F)c1)C1CCC(CN)CC1 (stereo not drawn) [compound 36, [(4-aminomethyl-cyclohexyl)-(3-fluorophenyl)-methyl]-dimethylamine]	68		96	89	93	Ki [4]: 110 nM
COc1ccc(N(C(C)=O)C2CCC(C(c3ccccc3)N(C)C)CC2)cc1 (stereo not drawn) [compound 99, N-(4-((dimethylamino)(phenyl)methyl)cyclohexyl)-N-(4-methoxyphenyl)-acetamide hydrochloride]		470	540	83		inhibition at 1 µM [2]: 77%; inhibition at 10 µM [4, 7]: 75%
CN(C)C(c1ccccc1)C1CCC(C=O)CC1 (stereo not drawn) [compound 28, 4-(Dimethylamino-phenyl-methyl)-cyclohexane-carbaldehyde]	69			85	84	
CN(C)C(c1cccc(F)c1)C1CCC(O)CC1 (stereo not drawn) [compound 113, 4-[dimethylamino-(3-fluorophenyl)-methyl]-cyclohexanol]	46			83	82	
CN(C)C(c1ccc(Cl)cc1)C1CCC(CO)CC1 (stereo not drawn) [compound 120, {4-[(4-chlorophenyl)-dimethylamino-methyl]-cyclohexyl}-methanol]	51			79	93	
CN(C)C(c1ccccc1)C1CCC(CCN)CC1 (stereo not drawn) [compound 48]						μ-Opioid receptor, % inhibition [1 μM] [2, 5]: 67%; Serotonin reuptake, % inhibition [10 μM] ([3]; 10 μM, rat brain synaptosomes): 95%; NA reuptake, % inhibition [10 μM] ([4]; 10 μM, rat brain synaptosomes (hypothalamus)): 100%
CCOC(=O)C=CC1CCC(C(c2ccccc2)N(C)C)CC1 (stereo not drawn) [compound 132, 3-[4-(dimethylamino-phenyl-methyl)-cyclohexyl]-acrylic acid ethyl ester]	91	120	420	86	84	Ki [4]: 590 nM
CCC(=O)N(CCCCc1ccccc1)C1CCC(C(c2ccccc2)N(C)C)CC1 (stereo not drawn) [compound 97, N-(4-((dimethylamino)(phenyl)methyl)cyclohexyl)-N-(4-phenylbutyl)propionamide hydrochloride]		3.7	990	76		inhibition at 1 µM [2]: 97%; Ki [4]: 700 nM; inhibition at 10 µM [4, 7]: 94%
CN(C)C(c1ccccc1)C1CCC(Nc2ccccc2)CC1 (stereo not drawn) [compound 92, N-(4-((dimethylamino)(phenyl)methyl)cyclohexyl)benzenamine hydrochloride]	91	17		69	75	
CN(C)C(CCc1ccccc1)C1CCC(CO)CC1 (stereo not drawn) [compound 122, [4-(1-dimethylamino-3-phenyl-propyl)-cyclohexyl]-methanol]	32			77	97	
COc1ccc(OC)c(C2(O)CCC(C(c3ccccc3)N(C)C)CC2)c1 (stereo not drawn) [compound 149, 1-(2,5-Dimethoxyphenyl)-4-((dimethylamino)(phenyl)methyl)cyclohexanol hydrochloride]	82			85	75	
CN(C)C(c1ccccc1)C1CCC(NS(=O)(=O)c2ccc(C(C)(C)C)cc2)CC1 (stereo not drawn) [compound 108, 4-tert-butyl-N-(4-((dimethylamino)(phenyl)methyl)cyclohexyl)benzene-sulfonamide hydrochloride]				75	75	inhibition at 1 µM ([2]; 1 μM, sulfonamides (Table 17)): 92%; Ki ([2]; sulfonamides (Table 17)): 22 nM
CCC(CC)C(=O)N(Cc1ccccc1)C1CCC(C(c2ccccc2)N(C)C)CC1 (stereo not drawn) [compound 101, N-benzyl-N-(4-((dimethylamino)(phenyl)methyl)cyclohexyl)-2-ethylbutanamide hydrochloride]		2.3	880	81		inhibition at 1 µM [2]: 101%; Ki [4]: 670 nM; inhibition at 10 µM [4, 7]: 86%
CCOC(=O)C=C1CCC(C(c2ccccc2)N(C)C)CC1 (stereo not drawn) [compound 123, [4-(dimethylamino-phenyl-methyl)-cyclohexylidene]-acetic acid ethyl ester]	75	190		92	66	
CCOC(=O)C=CC1CCC(C(c2ccc(F)cc2)N(C)C)CC1 (stereo not drawn) [compound 135, 3-{4-[dimethylamino-(4-fluorophenyl)-methyl]-cyclohexyl}-acrylic acid ethyl ester]	70	380	220	78	90	Ki [4]: 490 nM
CN(C)C(c1ccccc1)C1CCC(NC(=O)Nc2ccc(Br)cc2)CC1 (stereo not drawn) [compound 81, 1-(4-bromophenyl)-3-(4-((dimethylamino)(phenyl)methyl)cyclohexyl)urea]	95	33		97	97	
CN(C)C(c1ccccc1)C1CCC(N)CC1 (stereo not drawn) [compound 17, 4-(dimethylamino-phenyl-methyl)-cyclohexylamine]	83			86	92	Ki ([2]; [3H]-naloxone, human μ-opiate receptor membranes): 440 nM; Ki ([3]; rat brain synaptosomes, read-out: Serotonin reuptake, Ki): 860 nM; Ki ([4]; rat brain synaptosomes (hypothalamus), read-out: NA reuptake, Ki): 870 nM
CN(C)C(c1ccc(F)cc1)C1CCC(CCCO)CC1 (stereo not drawn) [compound 137, 3-{4-[dimethylamino-(4-fluorophenyl)-methyl]-cyclohexyl}-propan-1-ol]	13			89	93	
CN(C)C(c1cccc(F)c1)C1CCC(CCO)CC1 (stereo not drawn) [compound 131, 2-{4-[dimethylamino-(3-fluorophenyl)-methyl]-cyclohexyl}-ethanol]	68			91	89	
